Results on 8 compounds are retold here after patent publication US6300331A, “Naphthalimidobenzamide derivatives” (Taiho Pharmaceutical Co., Ltd., priority 1998, dated 2001).

Where a name gives a salt, the structure may show the parent alone.

The subject of this assay is KB cells. The assay can be described thus: Cytotoxicity against KB cells (crystal violet dying method). The assay is classed as cell-based. Particulars: Homo sapiens; KB cells, 72 hours, 50% proliferation inhibition; read-out: Cytotoxicity [IC50 (μM)]. The method, then: Test 1 Cytotoxicity against KB cells
The residue was re-suspended in an MEM medium containing 10% fetal bovine serum. Then, an equivalent amount of a 0.2% trypan blue solution was added to a portion of the cell suspension, followed by mixing. The number of living cells which had not been dyed with the trypan blue was counted by a hemocytometer and the suspension was diluted and adjusted with the above-described culture medium to give a cell concentration of 1×10^4 cells/ml. Each well of a 96-well plate was inoculated with a 100-μl portion of the resulting suspension, in other words, was inoculated to give a concentration of 1×10^3 cells/well.
To the cells cultured in a CO2 incubator for 24 hours after the inoculation was added 100 μl/well of a medicament solution, followed by culturing for 72 hours. To a control was added 100 μl of an MEM medium.
The cytotoxicity of the medicament was determined from a change in the number of the cells by using the crystal violet dying method.
After washing the plate with water, 100 μl/well of a 0.05% crystal violet solution dissolved in 20% methanol was added to dye the cells therewith for about 15 minutes. The plate was washed to remove the unbound crystal violet, followed by the addition of 100 μl/well of 0.05M NaH2 PO4 /ethanol (1:1 v/v), whereby the crystal violet bound to the cellular protein was extracted.

On to `Cn1cc(NC(=O)c2cc(NC=O)cn2C)cc1C(=O)NCCNCCNC(=O)c1cc(C(=O)NCCNCCN2C(=O)c3cccc4cc([N+](=O)[O-])cc(c34)C2=O)cc(N2C(=O)c3cccc4cc([N+](=O)[O-])cc(c34)C2=O)c1` [Example 38, 1-[N-[2-[[2-[4-(4-formamido-1-methylpyrrole-2-carboxyamido)-1-methylpyrrole-2-carboxamido]ethyl]amino]ethyl]carbamoyl]-3-(3-nitro-1,8-naphthalimido)-5-[N-[2-[[2-(3-nitro-1,8-naphthalimido)ethyl]amino]ethyl]carbamoyl]benzene dihydrochloride], for which the IC50 was determined as 6.9 µM.
In the case of `CNC(=O)c1cc(C(=O)NCCNCCN2C(=O)c3cccc4cc([N+](=O)[O-])cc(c34)C2=O)cc(N2C(=O)c3cccc4cc([N+](=O)[O-])cc(c34)C2=O)c1` [Example 43, 1-methylcarbamoyl-3-(3-nitro-1,8-naphthalimido)-5-[N-[2-[[2-(3-nitro-1,8-naphthalimido)ethyl]amino]ethyl]carbamoyl]benzene hydrochloride] it was 0.025 µM; in that of `O=C(NCCNCCN1C(=O)c2cccc3c(Cl)ccc(c23)C1=O)c1cc(C(=O)NCCNCCN2C(=O)c3cccc4c(Cl)ccc(c34)C2=O)cc(N2C(=O)c3cccc4cc([N+](=O)[O-])cc(c34)C2=O)c1` [Example 8, 1,3-bis[N-[2-[[2-(4-chloro-1,8-naphthalimido)ethyl]amino]ethyl]carbamoyl]-5-(3-nitro-1,8-naphthalimido)benzene dihydrochloride], 0.05 µM; in that of `O=C(NCCNCCN1C(=O)c2cccc3cccc(c23)C1=O)c1cc(C(=O)NCCNCCN2C(=O)c3cccc4cccc(c34)C2=O)cc(N2C(=O)c3cccc4cccc(c34)C2=O)c1` [Example 1, 1,3-bis[N-[2-[[2-(1,8-naphthalimido)ethyl]amino]ethyl]carbamoyl]-5-(1,8-naphthalimido) benzene dimethanesulfonate], 0.059 µM.
As for `CN(C)CCCNC(=O)c1cc(NC(=O)CCNC(=O)c2cc(C(=O)NCCNCCN3C(=O)c4cccc5cc([N+](=O)[O-])cc(c45)C3=O)cc(N3C(=O)c4cccc5cc([N+](=O)[O-])cc(c45)C3=O)c2)cn1C` [Example 33, 1-[N-[2-[N-[2-[N-(3-dimethylaminopropyl)carbamoyl]-1-methylpyrrol-4-yl]carbamoyl]ethyl]carbamoyl]-3-(3-nitro-1,8-naphthalimido)-5-[N-[2-[[2-(3-nitro-1,8-naphthalimido)ethyl]amino]ethyl]carbamoyl]benzene dihydrochloride], the figure is 7.1 µM; as for `O=C(NCCNCCCN1C(=O)c2cccc3cc([N+](=O)[O-])cc(c23)C1=O)c1cccc(N2C(=O)c3cccc4cc([N+](=O)[O-])cc(c34)C2=O)c1` [Example 40 (A), 1-(3-nitro-1,8-naphthalimido)-3-[N-[2-[[3-(3-nitro-1,8-naphthalimido)propyl]amino]ethyl]carbamoyl]benzene hydrochloride], 0.003 µM.
As for `Cn1c(C(=O)NCCNCCNC(=O)c2cc(C(=O)NCCNCCN3C(=O)c4cccc5cc([N+](=O)[O-])cc(c45)C3=O)cc(N3C(=O)c4cccc5cc([N+](=O)[O-])cc(c45)C3=O)c2)cc2ccccc21` [Example 16, 1-(3-nitro-1,8-naphthalimido)-3-[N-[2-[[2-(3-nitro-1,8-naphthalimido)ethyl]amino]ethyl]carbamoyl]-5-[N-[2-[[2-(1-methylindole-2-carbonylamino)ethyl]amino]ethyl]carbamoyl]benzene dihydrochloride], the figure is 6.6 µM; as for `O=C(NCCNCCN1C(=O)c2cccc3cc([N+](=O)[O-])cc(c23)C1=O)c1cc(C(=O)N2CCOCC2)cc(N2C(=O)c3cccc4cc([N+](=O)[O-])cc(c34)C2=O)c1` [Example 48, 1-morpholinocarbonyl-3-(3-nitro-1,8-naphthalimido)-5-[N-[2-[[2-(3-nitro-1,8-naphthalimido)ethyl]amino]ethyl]carbamoyl]benzene hydrochloride], 0.052 µM.

Usually IC50 stands for the point on the concentration scale where inhibition reaches its midpoint.
